{"source": "patent US20230022488A1", "about": "“Laundry Composition” (FIRMENICH SA, priority 2019, published 2023)", "tested_on": "panelist", "assay": "Odor threshold concentration (Log T / Log ODT) by gas chromatograph with sniff port", "set-up": "species or system human", "protocol": "“High impact perfume raw materials” should be understood as perfume raw materials having a Log T<−4. The odor threshold concentration of a chemical compound is determined in part by its shape, polarity, partial charges and molecular mass. For convenience, the threshold concentration is presented as the common logarithm of the threshold concentration, i.e., Log [Threshold] (“Log T”).\nThe odor threshold concentration of a perfuming compound is determined by using a gas chromatograph (“GC”). Specifically, the gas chromatograph is calibrated to determine the exact volume of the perfume oil ingredient injected by the syringe, the precise split ratio, and the hydrocarbon response using a hydrocarbon standard of known concentration and chain-length distribution. The air flow rate is accurately measured and, assuming the duration of a human inhalation to last 12 seconds, the sampled volume is calculated. […] To determine the threshold concentration, solutions are delivered to the sniff port at the back-calculated concentration. A panelist sniffs the GC effluent and identifies the retention time when odor is noticed. The average across all panelists determines the odor threshold concentration of the perfuming compound. The determination of odor threshold is described in more detail in C.", "key": {"[1]": {"settings": "ingredient of Perfume oil B (Table 3)"}, "[2]": {"settings": "ingredient of Perfume oil D (Table 7)"}, "[3]": {"settings": "ingredient of Perfume oil C (Table 5)"}, "[4]": {"settings": "ingredient of Perfume oil A (Table 1)"}}}
{"compound": ".ALPHA.-DIHYDROTERPINEOL (A) + .BETA.-DIHYDROTERPINEOL (B)", "values": [{"measurement": "Log ODT", "setting": "[1]", "result": ">−4"}]}
{"compound": "(+)-(3S)-3-[(1R)-4-METHYL-3-CYCLOHEXEN-1-YL]BUTANAL (A) + (+)-(3R)-3-[(1R)-4-METHYL-3-CYCLOHEXEN-1-YL]BUTANAL", "values": [{"measurement": "Log ODT", "setting": "[2]", "result": ">−4"}]}
{"compound": "1-OXA-12-CYCLOHEXADECEN-2-ONE (A) + 1-OXA-13-CYCLOHEXADECEN-2-ONE (B)", "values": [{"measurement": "Log ODT", "setting": "[3]", "result": ">−4"}]}
{"compound": "3,7-DIMETHYL-2,6-NONADIENENITRILE (A) + 3,7-DIMETHYL-3,6-NONADIENENITRILE (B)", "values": [{"measurement": "Log ODT", "setting": "[3]", "result": ">−4"}]}
{"compound": "(+−)-(3E)-3-METHYL-4-(2,6,6-TRIMETHYL-2-CYCLOHEXEN-1-YL)-3-BUTEN-2-ONE (A) + (+−)-(1E)-1-(2,6,6-TRIMETHYL-2-CYCLOHEXEN-1-YL)-1-PENTEN-3-ONE (B)", "values": [{"measurement": "Log ODT", "setting": "[3]", "result": "<−4"}]}
{"compound": "3,5,6-TRIMETHYL-3-CYCLOHEXENE-1-CARBALDEHYDE (A) + 2,4,6-TRIMETHYL-3-CYCLOHEXENE-1-CARBALDEHYDE (B)", "values": [{"measurement": "Log ODT", "setting": "[3]", "result": ">−4"}]}
{"compound": "(+−)-4-METHYLENE-2-PHENYLTETRAHYDRO-2H-PYRAN (A) + (+−)-4-METHYL-6-PHENYL-3,6-DIHYDRO-2H-PYRAN (B) + (+−)-4-METHYL-2-PHENYL-3,6-DIHYDRO-2H-PYRAN (C)", "values": [{"measurement": "Log ODT", "setting": "[1]", "result": "<−4"}, {"measurement": "Log ODT", "setting": "[2]", "result": "<−4"}]}
{"compound": "(2Z)-1,1-DIETHOXY-3,7-DIMETHYL-2,6-OCTADIENE (A) + (2E)-1,1-DIETHOXY-3,7-DIMETHYL-2,6-OCTADIENE (B)", "values": [{"measurement": "Log ODT", "setting": "[1]", "result": ">−4"}, {"measurement": "Log ODT", "setting": "[2]", "result": ">−4"}]}
{"compound": "3-(4-ETHYLPHENYL)-2,2-DIMETHYLPROPANAL (A) + 3-(2-ETHYLPHENYL)-2,2-DIMETHYLPROPANAL (B)", "values": [{"measurement": "Log ODT", "setting": "[1]", "result": ">−4"}]}
{"compound": "(1 RS,2RS)-2,4-DIMETHYL-3-CYCLOHEXENE-1-CARBALDEHYDE (A) + (1 RS,2SR)-2,4-DIMETHYL-3-CYCLOHEXENE-1-CARBALDEHYDE (B)", "values": [{"measurement": "Log ODT", "setting": "[4]", "result": ">−4"}, {"measurement": "Log ODT", "setting": "[3]", "result": ">−4"}]}
{"compound": "2-METHYLBUTYL SALICYLATE (A) + PENTYL SALICYLATE (B)", "values": [{"measurement": "Log ODT", "setting": "[4]", "result": ">−4"}]}
{"compound": "CC(C)c1cccc(C(C)CC=O)c1", "note": "(racemic) [(+−)-3-(3-ISOPROPYL-1-PHENYL)BUTANAL]", "values": [{"measurement": "Log ODT", "setting": "[1]", "result": "<−4"}]}
{"compound": "(2RS,4SR)-4-METHYL-2-(2-METHYL-1-PROPEN-1-YL)TETRAHYDRO-2H-PYRAN (A) + (2RS,4RS)-4-METHYL-2-(2-METHYL-1-PROPEN-1-YL)TETRAHYDRO-2H-PYRAN (B)", "values": [{"measurement": "Log ODT", "setting": "[4]", "result": ">−4"}, {"measurement": "Log ODT", "setting": "[1]", "result": ">−4"}]}
{"compound": "TRICYCLO[5.2.1.0~2,6~]DEC-3-EN-8-YL ACETATE (A) + TRICYCLO[5.2.1.0~2,6~]DEC-4-EN-8-YL ACETATE (B)", "values": [{"measurement": "Log ODT", "setting": "[4]", "result": ">−4"}, {"measurement": "Log ODT", "setting": "[1]", "result": ">−4"}]}
{"compound": "10-UNDECENAL (A) + (9E)-9-UNDECENAL (B) + (9Z)-9-UNDECENAL (C)", "values": [{"measurement": "Log ODT", "setting": "[1]", "result": "<−4"}, {"measurement": "Log ODT", "setting": "[3]", "result": "<−4"}]}
{"compound": "CCCCC[C@H]1C(=O)CC[C@@H]1CC(=O)OC", "note": "(racemic) [METHYL 2-((1RS,2RS)-3-OXO-2-PENTYLCYCLOPENTYL) ACETATE]", "values": [{"measurement": "Log ODT", "setting": "[4]", "result": ">−4"}, {"measurement": "Log ODT", "setting": "[3]", "result": ">−4"}]}
{"compound": "c1ccc(Oc2ccccc2)cc1", "note": "[1,1′-OXYDIBENZENE]", "values": [{"measurement": "Log ODT", "setting": "[4]", "result": ">−4"}]}
